Measured values from US20260231945A1, “NEMATICIDAL COMPOUNDS, THEIR COMPOSITION AND USE THEREOF” (priority 2023, published 2026).

What was measured:
[1] = system: Root-knot nematodes Meloidogyne spp. juveniles (J2); assay: whole plant or invertebrate; type: in vivo; conditions: 70-100 J2 juveniles, 22±2° C., 70±5% RH, dead/inactive counted at 24, 48, 72 and 96 hours (time of rating not stated); for mortality at 500 ppm: Meloidogyne
Protocol: The compound to be tested (4 mg) was dissolved in 40 μl of DMSO to make 100,000 PPM concentration stock solution. […] The nematode suspension (250 μl) having 70-100 juveniles (J2) of Root-knot nematodes Meloidogyne spp. pipetted out to each cell of 24 well bioassay plate. Sterile water (1 ml) was pipetted out in fresh 2.5 ml Eppendorf micro-centrifuge tubes. The desired concentration (500 ppm) of the compound was prepared by adding stock solution in 2.5 ml Eppendorf micro-centrifuge tubes. For each treatment 4 replications were maintained. The bioassay plates were incubated at 22±2° C. and 70±5% RH in humidity chambers.

[2] = Stability studies: storage at room temperature and under accelerated storage condition (ATS), purity estimated by HPLC; type: physicochemical; conditions: properly packed material; for purity estimated by HPLC, Day 14 Condition 54° C. ± 2° C. / purity estimated by HPLC, Day Zero Condition 54° C. ± 2° C.: 54° C. ± 2° C. (accelerated storage)
Excerpt: The properly packed material was subjected to the conditions mentioned in the table below (Table 5).

| purity estimated by HPLC, Day 14 Condition 25° C. ± 2° C. [2] | purity estimated by HPLC, Day 14 Condition 54° C. ± 2° C. [2] | purity estimated by HPLC, Day Zero Condition 25° C. ± 2° C. [2] | purity estimated by HPLC, Day Zero Condition 54° C. ± 2° C. [2] | Structure (SMILES) | mortality at 500 ppm [1] [%] | % Mortality Rating ([1]; 500 ppm) |
| --- | --- | --- | --- | --- | --- | --- |
| 99.50 | 98.90 | 99.55 | 99.43 | N#Cc1ccc(/C=C/C=N/[C@@H](CCCNC(=N)N)C(=O)O)cc1 [Example 20, (E)-N^2-[(2E)-3-(4-cyanophenyl)prop-2-en-1-ylidene]-L-arginine] | 70 to 100 | – |
| 98.85 | 98.90 | 98.90 | 98.75 | N=C(N)NCCC[C@H](/N=C/C=C/c1ccc2ccccc2c1)C(=O)O [Example 24, (E)-N^2-[(2E)-3-(naphthalen-2-yl)prop-2-en-1-ylidene]-L-arginine] | 50 to 69 | – |

| Structure (SMILES) | purity estimated by HPLC, Day 14 Condition 25° C. ± 2° C. [2] | purity estimated by HPLC, Day 14 Condition 54° C. ± 2° C. [2] | purity estimated by HPLC, Day Zero Condition 25° C. ± 2° C. [2] | purity estimated by HPLC, Day Zero Condition 54° C. ± 2° C. [2] | mortality at 500 ppm [1] [%] | % Mortality Rating ([1]; 500 ppm) |
| --- | --- | --- | --- | --- | --- | --- |
| N#Cc1ccc(C=CC=NC(CCCNC(=N)N)C(=O)O)c(C(F)(F)F)c1 (stereo not drawn) [Example 39] | 99.55 | 99.60 | 99.40 | 99.40 | – | A (70-100) |
